Key:
[1] = tested on: Mus musculus; assay: Dose that prevents convulsions in 50% of the CF1 male mice tested after administration of 70 mg/kg of metrazole by intravenous route; assay type: functional
[2] = molecular target: GABA-A receptor; anion channel; assay: In vitro displacement of [3H]-diazepam from GABA-A Benzodiazepine receptor; assay type: protein-complex assay
[3] = Lethal dose was determined after intraperitoneal administration in mice; assay type: toxicity, organism-based; details: mouse, in vivo, ip

Structure (SMILES)	ED50 [1]	IC50 [2]	LD50 [3]
CN(C(=O)CN)c1ccc(Cl)cc1C(=O)c1ccccc1	1 mg/kg	9.9 nM	–
NCC(=O)Nc1ccc(Cl)cc1C(=O)c1ccccc1Cl	3.8 mg/kg	4.8 nM	–
CN1C(=O)CN=C(c2c(Cl)cccc2Cl)c2cc(Cl)ccc21	18.9 mg/kg	7 nM	–
O=C1CN=C(c2ccccc2Cl)c2cc(Cl)ccc2N1 [DELORAZEPAM]	0.26 mg/kg	2.8 nM	–
CN1C(=O)CN=C(c2ccccc2)c2cc(Cl)ccc21 [DIAZEPAM]	1.2 mg/kg	–	–
CN(C(=O)CN)c1ccc(Cl)cc1C(=O)c1c(Cl)cccc1Cl.Cl	> 200 mg/kg	930 nM	245 mg/kg
O=C1CN=C(c2c(Cl)cccc2Cl)c2cc(Cl)ccc2N1 [RO-223294]	6 mg/kg	5.5 nM	–
Cl.NCC(=O)Nc1ccc(Cl)cc1C(=O)c1c(Cl)cccc1Cl	> 400 mg/kg	1000 nM	–

Reference: ChEMBL document CHEMBL1122128, “Quinazolines and 1,4-benzodiazepines. 90. Structure-activity relationship between substituted 2-amino-N-(2-benzoyl-4-chlorophenyl)acetamides and 1,4-benzodiazepinones” (J Med Chem, 1982)
